Experimental findings from US12030884B2, “Pyrazoloquinoline KRAS inhibitors” (INCYTE CORPORATION, priority 2021, dated 2024) are described below.

In one data set the target is KRAS G12C (Homo sapiens, UniProt P01116, G12C). Kind of data set: GDP-GTP exchange assay (KRAS_G12C exchange assay). Type of data set: biochemical. The note with it: bodipy-loaded KRAS G12C, SOS1, GppNHp; 2 hours pre-incubation with inhibitor; read-out: G12C_exchange. The procedure:
The inhibitor potency of the exemplified compounds was determined in a fluorescence based guanine nucleotide exchange assay, which measures the exchange of bodipy-GDP (fluorescently labeled GDP) for GppNHp (Non-hydrolyzable GTP analog) to generate the active state of KRAS in the presence of SOS1 (guanine nucleotide exchange factor). Inhibitors were serially diluted in DMSO and a volume of 0.1 μL was transferred to the wells of a black low volume 384-well plate. 5 μL/well volume of bodipy-loaded KRAS G12C diluted to 5 nM in assay buffer (25 mM Hepes pH 7.5, 50 mM NaCl, 10 mM MgCl2 and 0.01% Brij-35) was added to the plate and pre-incubated with inhibitor for 2 hours at ambient temperature. Appropriate controls (enzyme with no inhibitor or with a G12C inhibitor (AMG-510)) were included on the plate. The exchange was initiated by the addition of a 5 μL/well volume containing 1 mM GppNHp and 300 nM SOS1 in assay buffer. The 10 μL/well reaction concentration of the bodipy-loaded KRAS G12C, GppNHp, and SOS1 were 2.5 nM, 500 uM, and 150 nM, respectively. The reaction plates were incubated at ambient temperature for 2 hours, a time estimated for complete GDP-GTP exchange in the absence of inhibitor. For the KRAS G12D and G12V mutants, similar guanine nucleotide exchange assays were used with 2.5 nM as final concentration for the bodipy loaded KRAS proteins and with 4 hours and 3 hours incubation after adding GppNHp-SOS1 mixture for G12D and G12V respectively. A cyclic peptide described to selectively bind G12D mutant (Sakamoto et al., BBRC 484.3 (2017), 605-611) or internal compounds with confirmed binding were used as positive controls in the assay plates. Fluorescence intensities were measured on a PheraStar plate reader instrument (BMG Labtech) with excitation at 485 nm and emission at 520 nm.
Either GraphPad prism or Genedata Screener SmartFit was used to analyze the data. The IC50 values were derived by fitting the data to a four parameter logistic equation producing a sigmoidal dose-response curve with a variable Hill coefficient.

Data set [1] concerns pERK1/2 in MIA PaCa-2 cells (KRAS G12C). Nature of the data set: Whole blood pERK1/2 HTRF assay (KRAS_G12C WB pERK assay). The format is cell-based. The note with it: Homo sapiens, compound in whole blood, 4 hours, read-out: G12C_WB_pERK. The method, then: MIA PaCa-2 cells (KRAS G12C; ATCC® CRL-1420), HPAF-II (KRAS G12D; ATCC® CRL-1997) and YAPC (KRAS G12V; DSMZ ACC382) are maintained in RPMI 1640 with 10% FBS (Gibco/Life Technologies). For MIA PaCa-2 assay, cells are seeded into 96 well tissue culture plates (Corning #3596) at 25000 cells per well in 100 uL media and cultured for 2 days at 37° C., 5% CO2 before the assay. For HPAF-II and YAPC assay, cells are seeded in 96 well tissue culture plates at 50000 cells per well in 100 uL media and cultured for 1 day before the assay. Whole Blood are added to the 1 uL dots of compounds (prepared in DMSO) in 96 well plates and mixed gently by pipetting up and down so that the concentration of the compound in blood is 1× of desired concentration, in 0.5% DMSO. The media is aspirated from the cells and 50 uL per well of whole blood with test compound is added and incubated for 4 hours for MIA PaCa and YAPC assay; or 2 hours for HPAF-II assay, respectively at 37° C., 5% CO2. After dumping the blood, the plates are gently washed twice by adding PBS to the side of the wells and dumping the PBS from the plate onto a paper towel, tapping the plate to drain well. Fifty ul/well of 1×lysis buffer #1 (Cisbio) with blocking reagent (Cisbio) and Benzonase nuclease (Sigma Cat #E1014-5KU, 1: 10000 final concentration) is then added and incubated at room temperature for 30 minutes with shaking (250 rpm). Following lysis, 16 uL of lysate is transferred into 384-well Greiner small volume white plate using an Assist Plus (Integra Biosciences, NH). Four uL of 1:1 mixture of anti Phospho-ERK 1/2 d2 and anti Phospho-ERK 1/2 Cryptate (Cisbio) is added to the wells using the Assist Plus and incubated at room temperature overnight in the dark. Plates are read on the Pherastar plate reader at 665 nm and 620 nm wavelengths. Data are analyzed in Genedata Screener using SmartFit for IC50 values.

Data set [2] in a line: Human whole blood stability. The format is in vitro ADME. Particulars: percent remaining, 1 μM, 37° C. The procedure: The whole blood stability of the exemplified compounds was determined by LC-MS/MS. The 96-Well Flexi-Tier™ Block (Analytical Sales & Services, Inc, Flanders, NJ) was used for the incubation plate containing 1.0 mL glass vials with 0.5 mL of blood per vial (pooled gender, human whole blood sourced from BIOIVT, Hicksville, NY or similar). Blood was pre-warmed in water bath to 37° C. for 30 minutes. 96-deep well analysis plate was prepared with the addition of 100 μL ultrapure water/well. 50 μL chilled ultrapure water/well was added to 96-deep well sample collection plate and covered with a sealing mat. 1 μL of 0.5 mM compound working solution (DMSO:water) was added to the blood in incubation plate to reach final concentrations of 1 μM, mixed by pipetting thoroughly and 50 μL was transferred 50 into the T=0 wells of the sample collection plate. Blood was allowed to sit in the water for 2 minutes and then 400 μL stop solution/well was added (acetonitrile containing an internal standard). The incubation plate was placed in the Incu-Shaker CO2 Mini incubator (Benchmark Scientific, Sayreville, NJ) at 37° C. with shaking at 150 rpm. At 1, 2 and 4-hr, the blood samples were mixed thoroughly by pipetting and 50 μL is transferred into the corresponding wells of the sample collection plate. Blood was allowed to sit in the water for 2 minutes and then 400 μL of stop solution/well was added. The collection plate was sealed and vortexed at 1700 rpm for 3 minutes (VX-2500 Multi-Tube Vortexer, VWR International, Radnor, PA), and samples were then centrifuged in the collection plate at 3500 rpm for 10 minutes (Allegra X-14R Centrifuge Beckman Coulter, Indianapolis, IN). 100 μL of supernatant/well was transferred from the sample collection plate into the corresponding wells of the analysis plate. The final plate was vortexed at 1700 rpm for 1 minute and analyze samples by LC-MS/MS. The peak area ratio of the 1, 2, and 4 hr samples relative to T=0 was used to determine the percent remaining. The natural log of the percent remaining versus time was used determine a slope to calculate the compounds half-life in blood (t1/2=0.693/slope).

Data set [3] has as its system pERK in KRAS G12C cells (MIA PaCa-2, NCI-H358). Nature of the data set: Cellular pERK HTRF assay (KRAS_G12C pERK assay). The note with it: 4 hours incubation, read-out: G12C_pERK. Type of data set: cell-based. The procedure: MIA PaCa-2 (KRAS G12C; ATCC® CRL-1420), NCI-H358 (KRAS G12C; ATCC® CRL-5807), A427 (KRAS G12D; ATCC® HTB53), HPAFII (KRAS G12D; ATCC® CRL-1997), YAPC (KRAS G12V; DSMZ ACC382), SW480 (KRAS G12V; ATCC® CRL-228) and NCI-H838 (KRAS WT; ATCC® CRL-5844) cells are purchased from ATCC and maintained in RPMI 1640 media supplemented with 10% FBS (Gibco/Life Technologies). The cells are plated at 5000 cells per well (8 uL) into Greiner 384-well low volume, flat-bottom, and tissue culture treated white plates and incubated overnight at […], 5% CO2. The next morning, test compound stock solutions are diluted in media at 3× the final concentration and 4 uL are added to the cells, with a final concentration of 0.1% of DMSO. The cells are incubated with the test compounds for 4 hours (G12C and G12V) or 2 hrs (G12D) at 37° C., 5% CO2. Four uL of 4×lysis buffer with blocking reagent (Cisbio) are added to each well and plates are rotated gently (300 rpm) for 30 minutes at room temperature. Four uL per well of Cisbio anti Phospho-ERK 1/2 d2 is mixed with anti Phospho-ERK 1/2 Cryptate (1:1), and added to each well, incubated overnight in the dark at room temperature. Plates are read on the Pherastar plate reader at 665 nm and 620 nm wavelengths. Data are analyzed in Genedata Screener using SmartFit for IC50 values.
A general note: TR-FRET usually uses a lanthanide donor and a delayed reading to cut background.

Some results are limits rather than exact numbers.

KRAS G12C, sequence (P01116 1-188 isoform P01116-2 G12C): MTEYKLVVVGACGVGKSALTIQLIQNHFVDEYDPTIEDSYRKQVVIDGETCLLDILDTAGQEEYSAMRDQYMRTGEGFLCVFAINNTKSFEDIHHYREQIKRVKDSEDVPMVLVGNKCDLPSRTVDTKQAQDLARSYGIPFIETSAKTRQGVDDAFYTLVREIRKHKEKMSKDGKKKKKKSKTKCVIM

With `COC/C=C/C(=O)N1CC[C@H](n2ncc3c(O[C@@H](C)[C@@H]4CCCN4C)nc4c(F)c(-c5nccc6cccc(C#N)c56)c(Cl)cc4c32)C[C@H]1CC#N` [Example 2a, 1-(8-chloro-1-((2S,4S)-2-(cyanomethyl)-1-((E)-4-methoxybut-2-enoyl)piperidin-4-yl)-6-fluoro-4-((S)-1-((S)-1-methylpyrrolidin-2-yl)ethoxy)-1H-pyrazolo[4,3-c]quinolin-7-yl)isoquinoline-8-carbonitrile], the IC50 (at KRAS G12C; in data set [1]; in data set [3]) was at most 100 nM each time. In addition, the “Human whole blood stability at 4 hr” value in data set [2] was “††† (WBS >90%)”.
